Assay results published in ChEMBL document CHEMBL1140798, “Novel thiol-based TACE inhibitors. Part 2: Rational design, synthesis, and SAR of thiol-containing aryl sulfones” (Bioorg Med Chem Lett, 2008).

Tests used:
[1] = target: Disintegrin and metalloproteinase domain-containing protein 17 (Homo sapiens, UniProt P78536); experiment: Inhibition of TACE
Neutrophil collagenase = Neutrophil collagenase (Homo sapiens, UniProt P22894); experiment: Inhibition of MMP8
Collagenase 3 = Collagenase 3 (Homo sapiens, UniProt P45452); experiment: Inhibition of MMP13
[2] = target: 72 kDa type IV collagenase (Homo sapiens, UniProt P08253); experiment: Inhibition of MMP2
72 kDa type IV collagenase, sequence (P08253 whole entry): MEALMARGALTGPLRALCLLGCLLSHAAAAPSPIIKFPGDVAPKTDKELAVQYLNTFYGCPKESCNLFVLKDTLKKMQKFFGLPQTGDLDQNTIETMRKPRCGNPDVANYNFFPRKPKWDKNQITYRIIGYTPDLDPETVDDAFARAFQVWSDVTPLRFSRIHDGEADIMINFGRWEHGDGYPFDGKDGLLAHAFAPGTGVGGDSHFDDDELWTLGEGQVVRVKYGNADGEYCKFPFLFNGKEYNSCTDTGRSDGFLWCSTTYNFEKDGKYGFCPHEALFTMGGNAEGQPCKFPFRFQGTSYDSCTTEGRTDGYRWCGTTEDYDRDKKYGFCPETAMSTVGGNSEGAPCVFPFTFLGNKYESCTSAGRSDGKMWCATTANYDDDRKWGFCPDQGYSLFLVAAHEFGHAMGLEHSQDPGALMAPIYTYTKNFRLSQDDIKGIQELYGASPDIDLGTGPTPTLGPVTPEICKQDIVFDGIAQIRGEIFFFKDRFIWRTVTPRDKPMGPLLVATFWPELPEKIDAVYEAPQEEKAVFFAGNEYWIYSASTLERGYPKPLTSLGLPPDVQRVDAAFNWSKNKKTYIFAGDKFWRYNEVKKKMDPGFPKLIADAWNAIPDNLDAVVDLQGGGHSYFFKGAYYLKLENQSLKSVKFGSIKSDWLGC

Matrilysin = target: T1, Matrilysin (Homo sapiens, UniProt P09237); experiment: Inhibition of MMP7
T1 sequence (P09237 whole entry): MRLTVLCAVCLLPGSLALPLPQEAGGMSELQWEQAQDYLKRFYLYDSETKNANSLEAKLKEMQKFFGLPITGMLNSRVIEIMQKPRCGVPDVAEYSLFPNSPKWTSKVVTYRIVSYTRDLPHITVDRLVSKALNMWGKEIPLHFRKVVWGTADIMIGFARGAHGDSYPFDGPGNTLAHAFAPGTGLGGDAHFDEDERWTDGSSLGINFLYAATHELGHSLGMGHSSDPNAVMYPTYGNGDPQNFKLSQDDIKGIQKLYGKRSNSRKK

[3] = target: Matrix metalloproteinase-9 (Homo sapiens, UniProt P14780); experiment: Inhibition of MMP9
Matrix metalloproteinase-9, sequence (P14780 whole entry): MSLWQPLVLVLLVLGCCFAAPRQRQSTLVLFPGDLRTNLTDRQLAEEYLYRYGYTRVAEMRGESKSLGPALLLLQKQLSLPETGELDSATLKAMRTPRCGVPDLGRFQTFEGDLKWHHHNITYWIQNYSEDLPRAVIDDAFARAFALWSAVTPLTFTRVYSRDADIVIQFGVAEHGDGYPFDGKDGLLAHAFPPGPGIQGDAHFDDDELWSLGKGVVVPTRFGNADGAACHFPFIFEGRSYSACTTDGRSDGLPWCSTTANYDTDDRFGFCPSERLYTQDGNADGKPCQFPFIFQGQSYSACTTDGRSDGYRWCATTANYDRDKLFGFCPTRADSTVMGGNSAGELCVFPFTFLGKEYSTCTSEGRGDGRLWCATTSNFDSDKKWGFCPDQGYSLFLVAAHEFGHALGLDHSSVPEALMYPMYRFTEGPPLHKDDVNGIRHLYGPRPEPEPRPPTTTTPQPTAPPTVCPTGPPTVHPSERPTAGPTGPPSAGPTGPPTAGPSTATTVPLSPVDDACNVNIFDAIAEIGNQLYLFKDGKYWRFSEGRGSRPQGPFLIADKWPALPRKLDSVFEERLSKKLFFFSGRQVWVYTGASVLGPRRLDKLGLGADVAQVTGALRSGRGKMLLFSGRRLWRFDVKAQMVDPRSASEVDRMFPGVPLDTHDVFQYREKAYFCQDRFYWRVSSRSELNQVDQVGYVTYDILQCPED

Disintegrin and metalloproteinase domain-containing protein 17, sequence (P78536 whole entry, the tested form may be a part): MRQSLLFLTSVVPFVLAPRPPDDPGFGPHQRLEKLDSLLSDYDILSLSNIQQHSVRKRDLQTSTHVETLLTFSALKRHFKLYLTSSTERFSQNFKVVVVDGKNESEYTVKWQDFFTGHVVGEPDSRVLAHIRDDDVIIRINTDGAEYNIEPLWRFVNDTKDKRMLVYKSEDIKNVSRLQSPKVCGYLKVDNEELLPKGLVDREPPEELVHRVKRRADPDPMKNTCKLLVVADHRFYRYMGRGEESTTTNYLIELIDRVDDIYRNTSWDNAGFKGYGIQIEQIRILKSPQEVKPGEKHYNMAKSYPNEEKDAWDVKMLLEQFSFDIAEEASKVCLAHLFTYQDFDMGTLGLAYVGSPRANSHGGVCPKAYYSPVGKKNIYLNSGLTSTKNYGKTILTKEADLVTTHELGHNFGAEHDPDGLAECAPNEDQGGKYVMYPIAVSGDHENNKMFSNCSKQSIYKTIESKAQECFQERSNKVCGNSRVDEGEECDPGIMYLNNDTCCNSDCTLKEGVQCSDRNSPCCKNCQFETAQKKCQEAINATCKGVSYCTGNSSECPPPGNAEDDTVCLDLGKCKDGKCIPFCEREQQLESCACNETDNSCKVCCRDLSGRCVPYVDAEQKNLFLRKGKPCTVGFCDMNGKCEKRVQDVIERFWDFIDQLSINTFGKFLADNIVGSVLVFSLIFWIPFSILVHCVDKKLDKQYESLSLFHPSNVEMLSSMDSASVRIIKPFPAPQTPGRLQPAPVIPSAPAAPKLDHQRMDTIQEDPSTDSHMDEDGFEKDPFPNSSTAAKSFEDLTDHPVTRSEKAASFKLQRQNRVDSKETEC
Neutrophil collagenase, sequence (P22894 whole entry): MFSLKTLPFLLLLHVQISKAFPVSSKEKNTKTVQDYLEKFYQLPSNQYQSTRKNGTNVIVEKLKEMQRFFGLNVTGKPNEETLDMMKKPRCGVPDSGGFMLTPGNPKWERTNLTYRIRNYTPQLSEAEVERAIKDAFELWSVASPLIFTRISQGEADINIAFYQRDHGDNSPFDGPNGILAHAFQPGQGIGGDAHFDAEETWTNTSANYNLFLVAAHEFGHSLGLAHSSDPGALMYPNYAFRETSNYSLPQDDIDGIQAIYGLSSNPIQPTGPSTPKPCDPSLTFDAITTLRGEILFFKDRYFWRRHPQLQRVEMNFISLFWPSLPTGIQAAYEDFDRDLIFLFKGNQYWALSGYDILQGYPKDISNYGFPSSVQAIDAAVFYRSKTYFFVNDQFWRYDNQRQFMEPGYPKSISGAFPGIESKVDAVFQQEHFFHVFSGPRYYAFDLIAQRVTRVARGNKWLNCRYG

SMILES	Ki [1] [nM]	other results
CC#CCNc1ccc(S(=O)(=O)[C@@H]2CCC[C@@H](S)C2)cc1	17	
CC#CCOc1ccc(S(=O)(=O)CCCS)cc1		Ki (Neutrophil collagenase): 2700 nM; Ki (Collagenase 3): 1700 nM; Ki [2]: 1300 nM; Ki (Matrilysin): > 2500 nM; Ki [3]: 6300 nM
CC#CCOc1ccc(S(=O)(=O)C2CCC(S)C2)cc1 (stereo unspecified)	50	

Further lines, with some results ahead:

Ki [1] [nM]	SMILES	other results
2	CC#CCNc1ccc(S(=O)(=O)CCS)cc1	
30	CC#CCOc1ccc(S(=O)(=O)[C@@H]2CCC[C@@H](S)C2)cc1	
8	CC#CCOc1ccc(S(=O)(=O)CCS)cc1	
4.5	CC#CCNc1ccc(S(=O)(=O)CCCS)cc1	
